According to PubChem BioAssay AID2060882 (Molecular Pharmacology Branch, DTP, NCI, 2025):

Test system: 898857-211-R-J1-PDC complex spheroids, growth % test/control
Assay: Anticancer human tumor 898857-211-R-J1-PDC patient-derived melanoma cell line growth inhibition [RAS]
Details: for IC50: curve of first compound; for viability, T/C: stronger effect = lower value
Source text: RAS pathway inhibitors in Combinations in Complex Spheroids
A high-throughput screen of multi-cell type tumor spheroids was designed to identify active combinations of RAS pathway inhibitors and targeted small molecules. Complex spheroids include a stromal component modeled by human endothelial cells (HUVEC) and fibroblasts modeled by human mesenchymal stem cells (MSCs). The concentration ranges selected for each drug and investigational agent were based upon clinically achievable concentrations if the clinical Cmax of the agent was known.
Compounds. The drugs and investigational agents: abemaciclib (NSC768073), cobimetinib (NSC768068), divarasib (GDC6063, NSC841802), docetaxel (NSC628503), GDC-1971 (RLY-1971, NSC841576), gemcitabine (NSC613327), inavolisib (NSC800729), ipatasertib (NSC767898), KB-0742 (NSC834161), MRTX-1133 (NSC836407), osimertinib (NSC779217), RMC-4630 (NSC839698), RMC-6236 (NSC851965), RMC-6291 (NSC852671), Ro-3306 (NSC812927), sapanisertib (NSC764658), SN-38 (NSC673596), staurosporine (NSC755774), SY5609 (NSC837396), and tovorafenib (DAY101, NSC766906), were obtained from the National Cancer Institute (NCI) Developmental Therapeutics Program Chemical Repository. The FDA-approved anticancer drug set is available from the NCI Developmental Therapeutics Program. […] The stock solutions were prepared in dimethyl sulfoxide (DMSO, Sigma-Aldrich, St. Louis, MO, cat. D2650) at 800-fold the tested concentration and stored at -70 degrees C prior to their use. All drugs and investigational agents were tested over a range starting from a high concentration at or near the clinical Cmax and decreasing in half-log increments. If the clinical Cmax for an agent had not been determined, the highest concentration tested was 10 microM.
Cell Culture. All cells were maintained in an incubator at 37 degrees C and 5% CO2 with 95% humidity. The PDC lines were cultured according to standard operating procedures established by the NCI PDMR. All PDCs were thawed and cultured in Matrigel-coated flasks prepared with a working solution of 1X Ham's F-12 nutrient mix, without supplementation (Invitrogen, Waltham, MA, cat. 11765054), 100 U/mL penicillin-streptomycin (Invitrogen, cat. 15140122), and 2.5% Matrigel (Corning Inc., Corning, NY, cat. 354248) for the first three passages. The 362531-283-R-J2-PDC and 782815-120-R-J1-PDC lines were cultured in 6C/Colon 1B media, which includes advanced DMEM/F-12 (Thermo Fisher Scientific, cat. 12634028), 10 mM HEPES (Thermo Fisher Scientific, cat. 15630080), 1X GlutaMAX supplement (Thermo Fisher Scientific, cat. 35050061), 0.1 mg/mL primocin (InvivoGen, San Diego, CA, cat. ant-pm-2), 10% defined fetal bovine serum, heat inactivated (HyClone Laboratories Inc., Logan, UT, cat. SH30070.03HI), 50% L-WRN conditioned media (ATCC, cat. CRL-3276), 1.25 mM N-Acetyl-L-cysteine (Sigma-Aldrich, cat. A9165), 10 mM nicotinamide (Sigma-Aldrich, cat. N0636), 1X B-27 supplement (Thermo Fisher Scientific, cat. 17504044), 1X N-2 supplement (Thermo Fisher Scientific, cat. 17502048), 50 ng/mL human EGF (Thermo Fisher Scientific, cat. PHG0311), and 10 microM Y-27632 dihydrochloride (Tocris Bioscience, cat. 1254). The K12877-001-R-J1-PDC line was cultured in 6I media, which includes all 6C/Colon 1B media plus 10 ng/mL human FGF-10 (PeproTech, cat. 100-26), 1 ng/mL human FGF-2 (PeproTech, cat. 100-18B), 1 µM prostaglandin E2 (Tocris Bioscience, cat. 2296), […] hydrocortisone (Sigma-Aldrich, cat. H4001), and […] bovine insulin (Sigma-Aldrich, cat. I6634). The K86415-001-R-J1-PDC line was cultured in 6D media, which includes all 6C/Colon 1B media components minus the L-WRN conditioned media. The 485176-168-R4-J1-PDC was cultured in PANC media, which includes all 6C/Colon 1B media plus 100 ng/mL human FGF-10 (PeproTech, cat. 100-26), 500 nM SB-431542 (Selleckchem, cat. S1067), and 10 nM gastrin (Tocris Bioscience, cat. 3006). […]
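Further: spheroids exposed to compound for seven days before readout.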
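Wherever viability, T/C is given: 100% = DMSO vehicle control wells.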

Compound `CCC(CC)c1cc(NC2CCC(N)C2)n2nccc2n1` (centres undefined) + C=CC(=O)N1CCN(c2nc(OCC3CCCN3C)nc3c(F)c(-c4nc(N)cc(C)c4C(F)(F)F)c(Cl)cc23)C(C)C1 has an IC50 (second compound 0.00316 µM) of 0.806 µM, an IC50 (second compound 0.01 µM) of 0.851 µM and an IC50 (second compound 0.0316 µM) of 1.13 µM. The IC50 (second compound 0.1 µM) was 1.22 µM, the IC50 (second compound 0.316 µM) was 1.3 µM and the IC50 (second compound 1 µM) was 1.16 µM. It also gave a viability, T/C (second compound 0.00316 µM, first compound 0.0316 µM) of 119%, a viability, T/C (second compound 0.00316 µM, first compound 0.1 µM) of 97.5% and a viability, T/C (second compound 0.00316 µM, first compound 0.316 µM) of 81.5%. For the same compound, the viability, T/C (second compound 0.00316 µM, first compound 1 µM) was 49.1%, the viability, T/C (second compound 0.00316 µM, first compound 3.16 µM) was 1.15% and the viability, T/C (second compound 0.00316 µM, first compound 10 µM) was 0.2%. It also gave a viability, T/C (second compound 0.01 µM, first compound 0.0316 µM) of 114%, a viability, T/C (second compound 0.01 µM, first compound 0.1 µM) of 97.8% and a viability, T/C (second compound 0.01 µM, first compound 0.316 µM) of 81.7%. The viability, T/C (second compound 0.01 µM, first compound 1 µM) was 51%, the viability, T/C (second compound 0.01 µM, first compound 3.16 µM) was 0.97% and the viability, T/C (second compound 0.01 µM, first compound 10 µM) was 0.25%. It also gave a viability, T/C (second compound 0.0316 µM, first compound 0.0316 µM) of 104%, a viability, T/C (second compound 0.0316 µM, first compound 0.1 µM) of 104% and a viability, T/C (second compound 0.0316 µM, first compound 0.316 µM) of 102%. The viability, T/C (second compound 0.0316 µM, first compound 1 µM) was 56%, the viability, T/C (second compound 0.0316 µM, first compound 3.16 µM) was 1.12% and the viability, T/C (second compound 0.0316 µM, first compound 10 µM) was 0.25%. For the same compound, the viability, T/C (second compound 0.1 µM, first compound 0.0316 µM) was 95.5%, the viability, T/C (second compound 0.1 µM, first compound 0.1 µM) was 110% and the viability, T/C (second compound 0.1 µM, first compound 0.316 µM) was 101%. It also gave a viability, T/C (second compound 0.1 µM, first compound 1 µM) of 60%, a viability, T/C (second compound 0.1 µM, first compound 3.16 µM) of 1.01% and a viability, T/C (second compound 0.1 µM, first compound 10 µM) of 0.21%. The viability, T/C (second compound 0.316 µM, first compound 0.0316 µM) was 123%, the viability, T/C (second compound 0.316 µM, first compound 0.1 µM) was 119% and the viability, T/C (second compound 0.316 µM, first compound 0.316 µM) was 104%. It also gave a viability, T/C (second compound 0.316 µM, first compound 1 µM) of 66.3%, a viability, T/C (second compound 0.316 µM, first compound 3.16 µM) of 1.11% and a viability, T/C (second compound 0.316 µM, first compound 10 µM) of 0.26%. For the same compound, the viability, T/C (second compound 1 µM, first compound 0.0316 µM) was 120%, the viability, T/C (second compound 1 µM, first compound 0.1 µM) was 117% and the viability, T/C (second compound 1 µM, first compound 0.316 µM) was 101%. For the same compound, the viability, T/C (second compound 1 µM, first compound 1 µM) was 59.7%, the viability, T/C (second compound 1 µM, first compound 3.16 µM) was 0.94% and the viability, T/C (second compound 1 µM, first compound 10 µM) was 0.24%.
For `C=CC(=O)Nc1cc(Nc2nccc(-c3cn(C)c4ccccc34)n2)c(OC)cc1N(C)CCN(C)C` + CCn1c(-c2cccnc2C(C)OC)c2c3cc(ccc31)N1CCOC(CC(NC(=O)C(C(C)C)N(C)C(=O)C3(F)CCN(C(=O)C#CC(C)(C)N(C)C)CC3)C(=O)N3CCCC(N3)C(=O)OCC(C)(C)C2)C1, the IC50 (second compound 0.000949 µM) was > 1 µM, the IC50 (second compound 0.003 µM) was 0.942 µM and the IC50 (second compound 0.00949 µM) was > 1 µM. The IC50 (second compound 0.03 µM) was > 1 µM, the IC50 (second compound 0.0949 µM) was > 1 µM and the IC50 (second compound 0.3 µM) was 0.848 µM. For the same compound, the viability, T/C (second compound 0.000949 µM, first compound 0.00316 µM) was 104%, the viability, T/C (second compound 0.000949 µM, first compound 0.01 µM) was 103% and the viability, T/C (second compound 0.000949 µM, first compound 0.0316 µM) was 107%. It also gave a viability, T/C (second compound 0.000949 µM, first compound 0.1 µM) of 84.9%, a viability, T/C (second compound 0.000949 µM, first compound 0.316 µM) of 95.9% and a viability, T/C (second compound 0.000949 µM, first compound 1 µM) of 56.3%. For the same compound, the viability, T/C (second compound 0.003 µM, first compound 0.00316 µM) was 99.3%, the viability, T/C (second compound 0.003 µM, first compound 0.01 µM) was 99.9% and the viability, T/C (second compound 0.003 µM, first compound 0.0316 µM) was 108%. The viability, T/C (second compound 0.003 µM, first compound 0.1 µM) was 95.4%, the viability, T/C (second compound 0.003 µM, first compound 0.316 µM) was 94.1% and the viability, T/C (second compound 0.003 µM, first compound 1 µM) was 47.1%. For the same compound, the viability, T/C (second compound 0.00949 µM, first compound 0.00316 µM) was 95.8%, the viability, T/C (second compound 0.00949 µM, first compound 0.01 µM) was 97.8% and the viability, T/C (second compound 0.00949 µM, first compound 0.0316 µM) was 102%. For the same compound, the viability, T/C (second compound 0.00949 µM, first compound 0.1 µM) was 94.8%, the viability, T/C (second compound 0.00949 µM, first compound 0.316 µM) was 91.4% and the viability, T/C (second compound 0.00949 µM, first compound 1 µM) was 59.9%. The viability, T/C (second compound 0.03 µM, first compound 0.00316 µM) was 107%, the viability, T/C (second compound 0.03 µM, first compound 0.01 µM) was 105% and the viability, T/C (second compound 0.03 µM, first compound 0.0316 µM) was 106%. For the same compound, the viability, T/C (second compound 0.03 µM, first compound 0.1 µM) was 110%, the viability, T/C (second compound 0.03 µM, first compound 0.316 µM) was 90.2% and the viability, T/C (second compound 0.03 µM, first compound 1 µM) was 58.3%. It also gave a viability, T/C (second compound 0.0949 µM, first compound 0.00316 µM) of 105%, a viability, T/C (second compound 0.0949 µM, first compound 0.01 µM) of 98.2% and a viability, T/C (second compound 0.0949 µM, first compound 0.0316 µM) of 92.3%. For the same compound, the viability, T/C (second compound 0.0949 µM, first compound 0.1 µM) was 96.6%, the viability, T/C (second compound 0.0949 µM, first compound 0.316 µM) was 92.2% and the viability, T/C (second compound 0.0949 µM, first compound 1 µM) was 57%. For the same compound, the viability, T/C (second compound 0.3 µM, first compound 0.00316 µM) was 84.8%, the viability, T/C (second compound 0.3 µM, first compound 0.01 µM) was 67.8% and the viability, T/C (second compound 0.3 µM, first compound 0.0316 µM) was 77.7%. The viability, T/C (second compound 0.3 µM, first compound 0.1 µM) was 76.1%, the viability, T/C (second compound 0.3 µM, first compound 0.316 µM) was 71.4% and the viability, T/C (second compound 0.3 µM, first compound 1 µM) was 46.4%.
